Key:
[1] = biological target: T1, Recombinant human His6-USP1/His6-UAF1 complex protein (Homo sapiens, UniProt O94782); experiment: In vitro inhibitory activity against USP1 (Ubiquitin Rhodamine 110 fluorescence detection, 384-well plate); format: biochemical; conditions: Ub-Rho substrate, 1 hour pre-incubation, read after 30 minutes
T1 construct: His6; purchased R&D E-568-050
How it was run: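 Compounds, kept as 50 mM DMSO stocks, were acoustically dispensed into modified Tris buffer. Inhibition of recombinant human His6-USP1/His6-UAF1 was read by fluorescence from cleavage of Ub-Rho110 substrate.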

MDA-MB-436 = experiment: CTG experiment for cell viability (CellTiter-Glo, 96-well plate, 7 days); format: cell-based; conditions: Homo sapiens, MDA-MB-436, 168 h, MDA-MB-436 cells, 7 days culture with compound
Experimental: Test Example 2: CTG experiment for cell viability
• 1. Object: to screen USP1 inhibitors by a CTG assay, using a 96-well plate. • 2. Materials: • The cells used were MDA-MB-436 (manufacturer: Nanjing Cobioer Biotechnology Co., Ltd.) and cultured in DMEM medium, • CTG (CellTiter-Glo® Luminescent Cell Viability Assay kit) (Promega, Cat. No.: G7572), • 96-well plate (Corning, Cat. No.: 3610). • 3. Compounds: all compounds were dissolved in 100% DMSO to obtain 50 mM stock solutions. • 4. Experimental method: • ① Plating: The cells to be tested were spread into a 96-well plate at a certain density, with 200 µL per well, and 200 µL of cell medium was added to the blank wells. […] The cell plate with the compounds was placed in an incubator at 37°C, and further cultured for 7 days prior to detection. • ④ Assay: The substrate and the buffer of CTG kit were mixed evenly. The cell plate with the compounds in Step ③ was taken out from the incubator, and left at room temperature to equilibrate for 30 minutes. The medium containing the compounds was removed from the cell plate, 100 µL of PBS and 50 µL of CTG reagent were added to each well, shaken and mixed for 3 minutes, and then incubated for 10 minutes at room temperature. The plate was read by a BIotek microplate-reader, with a parameter set to 567 CPM. • 5. Curve fitting
It was the same as that for the enzyme.

T1 sequence (O94782 whole entry): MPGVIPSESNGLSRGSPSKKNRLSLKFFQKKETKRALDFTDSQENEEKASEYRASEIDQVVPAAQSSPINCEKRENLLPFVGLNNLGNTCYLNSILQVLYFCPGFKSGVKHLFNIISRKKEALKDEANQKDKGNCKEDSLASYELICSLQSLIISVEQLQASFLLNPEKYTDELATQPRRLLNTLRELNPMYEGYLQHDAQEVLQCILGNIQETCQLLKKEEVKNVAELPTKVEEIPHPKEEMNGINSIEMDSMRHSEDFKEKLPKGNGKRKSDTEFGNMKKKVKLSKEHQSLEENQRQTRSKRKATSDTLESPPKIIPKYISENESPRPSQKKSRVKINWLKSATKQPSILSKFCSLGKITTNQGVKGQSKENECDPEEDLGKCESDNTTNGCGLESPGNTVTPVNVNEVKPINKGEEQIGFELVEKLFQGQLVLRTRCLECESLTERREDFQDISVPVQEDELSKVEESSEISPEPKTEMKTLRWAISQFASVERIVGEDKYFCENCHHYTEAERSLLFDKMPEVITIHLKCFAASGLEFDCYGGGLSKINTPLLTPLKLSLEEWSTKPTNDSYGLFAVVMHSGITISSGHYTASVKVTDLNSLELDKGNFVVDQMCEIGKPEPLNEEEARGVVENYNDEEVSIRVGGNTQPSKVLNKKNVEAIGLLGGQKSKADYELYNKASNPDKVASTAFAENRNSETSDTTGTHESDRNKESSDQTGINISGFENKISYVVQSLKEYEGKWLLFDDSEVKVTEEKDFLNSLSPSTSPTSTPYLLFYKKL
T1 sequence (Q8TAF3 whole entry partner): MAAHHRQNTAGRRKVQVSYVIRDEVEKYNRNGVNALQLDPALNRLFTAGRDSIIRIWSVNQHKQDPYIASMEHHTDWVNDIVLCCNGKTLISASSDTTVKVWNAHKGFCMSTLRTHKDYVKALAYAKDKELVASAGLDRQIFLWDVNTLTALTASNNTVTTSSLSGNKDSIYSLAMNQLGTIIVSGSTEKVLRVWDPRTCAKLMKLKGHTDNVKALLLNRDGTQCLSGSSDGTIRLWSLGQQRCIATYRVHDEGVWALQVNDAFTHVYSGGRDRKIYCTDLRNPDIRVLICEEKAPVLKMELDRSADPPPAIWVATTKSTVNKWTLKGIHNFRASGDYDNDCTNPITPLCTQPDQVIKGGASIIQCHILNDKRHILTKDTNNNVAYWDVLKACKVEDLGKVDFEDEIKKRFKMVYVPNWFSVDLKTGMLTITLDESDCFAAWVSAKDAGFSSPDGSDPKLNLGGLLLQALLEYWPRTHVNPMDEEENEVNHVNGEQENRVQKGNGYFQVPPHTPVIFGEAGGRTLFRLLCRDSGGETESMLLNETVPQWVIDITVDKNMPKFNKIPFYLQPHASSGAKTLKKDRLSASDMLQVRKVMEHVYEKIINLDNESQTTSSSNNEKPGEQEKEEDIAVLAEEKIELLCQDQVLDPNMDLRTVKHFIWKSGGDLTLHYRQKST

SMILES	IC50 [1]	IC50 (MDA-MB-436)
CC(C)c1ccccc1-c1ncc(C#N)c(NCc2ccc(-c3nc(C(F)(F)F)cn3C)cc2)n1 [Example 39, 2-(2-Isopropylphenyl)-4-((4-(1-methyl-4-(trifluoromethyl)-1H-imidazol-2-yl)benzyl)amino)pyrimidine-5-carbonitrile]	2.8 nM	56.9 nM
CC(C)c1ccccc1-c1nc(NCc2ccc(-c3nc(C(F)(F)F)cn3C)cc2)c2ncccc2n1 [Example 40, 2-(2-Isopropylphenyl)-N-(4-(1-methyl-4-(trifluoromethyl)-1H-imidazol-2-yl)benzyl)pyrido[3,2-d]pyrimidin-4-amine]	2.3 nM	21.4 nM
COc1ncnc(C2CC2)c1-c1nc(NCc2ccc(-n3nc(C(F)(F)F)cc3C)cc2)c2occc2n1 [Example 50, 2-(4-Cyclopropyl-6-methoxypyrimidin-5-yl)-N-(4-(5-methyl-3-(trifluoromethyl)-1H-pyrazol-1-yl)benzyl)furo[3,2-d]pyrimidin-4-amine]	5.2 nM	0.022 nM
Cc1cc(C(F)(F)F)nn1-c1ccc(CNc2nc(-c3ccccc3C(C)C)nc3ccoc23)cc1 [Example 57, 2-(2-Isopropylphenyl)-N-(4-(5-methyl-3-(trifluoromethyl)-1H-pyrazol-1-yl)benzyl)furo[3,2-d]pyrimidin-4-amine]	4.4 nM	48.3 nM
COc1cnc(-c2ccccc2C(C)C)nc1N(C)CC1CCC(c2ccccn2)CC1 (stereo not drawn) [Example 61, 2-(2-isopropylphenyl)-5-methoxy-N-methyl-N-((4-(pyridin-2-yl)cyclohexyl)methyl)pyrimidin-4-amine]	11 nM	813 nM
COc1cnc(-c2ccccc2C(C)C)nc1N(C)CC1CCN(c2nc(C(F)(F)F)cn2C)CC1 [Example 62, 2-(2-Isopropylphenyl)-5-methoxy-N-methyl-N-((1-(1-methyl-4-(trifluoromethyl)-1H-imidazol-2-yl)piperidin-4-yl)methyl)pyrimidin-4-amine]	2.1 nM	2.2 nM
COc1cnc(-c2ccccc2C(C)C)nc1NCC1CCC(c2ccccn2)CC1 (stereo not drawn) [Example 63, 2-(2-Isopropylphenyl)-5-methoxy-N-((4-(pyridin-2-yl)cyclohexyl)methyl)pyrimidin-4-amine]	3.3 nM	30 nM
COc1cnc(-c2ccccc2C(C)C)nc1NCc1ccc(-c2ccccn2)cc1 [Example 64, 2-(2-Isopropylphenyl)-5-methoxy-N-(4-(pyridin-2-yl)benzyl)pyrimidin-4-amine]	3.7 nM	6.3 nM
COc1cnc(-c2ccccc2C(C)C)nc1NCC1CCN(c2nc(C(F)(F)F)cn2C)CC1 [Example 65, 2-(2-Isopropylphenyl)-5-methoxy-N-((1-(1-methyl-4-(trifluoromethyl)-1H-imidazol-2-yl)piperidin-4-yl)methyl)pyrimidin-4-amine]	2.1 nM	2.4 nM
COc1cnc(-c2ccccc2C(C)C)nc1NCc1ccc(-c2ccc(C)cn2)cc1 [Example 66, 2-(2-Isopropylphenyl)-5-methoxy-N-(4-(5-methylpyridin-2-yl)benzyl)pyrimidin-4-amine]	5.6 nM	14.6 nM
CCOCCOc1ccc(CNc2nc(-c3ccccc3C(C)C)ncc2OC)cc1 [Example 68, N-(4-(2-Ethoxyethoxy)benzyl)-2-(2-isopropylphenyl)-5-methoxypyrimidin-4-amine]	3.2 nM	267 nM
COc1cc(CNc2nc(-c3ccccc3C(C)C)ncc2OC)ccc1-n1nc(C(F)(F)F)cc1C [Example 69, 2-(2-Isopropylphenyl)-5-methoxy-N-(3-methoxy-4-(5-methyl-3-(trifluoromethyl)-1H-pyrazol-1-yl)benzyl)pyrimidin-4-amine]	9.2 nM	709 nM
CC(C)Oc1cnc(-c2ccccc2C(C)C)nc1N(C)CC1CCN(c2nc(C(F)(F)F)cn2C)CC1 [Example 70, 5-Isopropoxy-2-(2-isopropylphenyl)-N-methyl-N-((1-(1-methyl-4-(trifluoromethyl)-1H-imidazol-2-yl)piperidin-4-yl)methyl)pyrimidin-4-amine]	19.4 nM	600 nM
CC(C)Oc1cnc(-c2ccccc2C(C)C)nc1N(C)Cc1ccc(-c2nc(C(F)(F)F)cn2C)cc1 [Example 71, 5-Isopropoxy-2-(2-isopropylphenyl)-N-methyl-N-(4-(1-methyl-4-(trifluoromethyl)-1H-imidazol-2-yl)benzyl)pyrimidin-4-amine]	9.9 nM	274 nM
CC(C)Oc1cnc(-c2ccccc2C(C)C)nc1NCC1CCN(c2nc(C(F)(F)F)cn2C)CC1 [Example 72, 5-Isopropoxy-2-(2-isopropylphenyl)-N-((1-(1-methyl-4-(trifluoromethyl)-1H-imidazol-2-yl)piperidin-4-yl)methyl)pyrimidin-4-amine]	6.1 nM	181 nM
CC(C)Oc1cnc(-c2ccccc2C(C)C)nc1NCc1ccc(-c2nc(C(F)(F)F)cn2C)cc1 [Example 73, 5-Isopropoxy-2-(2-isopropylphenyl)-N-(4-(1-methyl-4-(trifluoromethyl)-1H-imidazol-2-yl)benzyl)pyrimidin-4-amine]	3.6 nM	112 nM
CC(C)c1ccccc1-c1ncc(C(F)(F)F)c(NCC2CCN(c3nc(C(F)(F)F)cn3C)CC2)n1 [Example 75, 2-(2-Isopropylphenyl)-N-((1-(1-methyl-4-(trifluoromethyl)-1H-imidazol-2-yl)piperidin-4-yl)methyl)-5-(trifluoromethyl)pyrimidin-4-amine]	3.7 nM	331 nM
COc1cc(-c2nc(C(F)(F)F)cn2C)ccc1CNc1nc(-c2ccccc2C(C)C)nc2ccoc12 [Example 81, 2-(2-Isopropylphenyl)-N-(2-methoxy-4-(1-methyl-4-(trifluoromethyl)-1H-imidazol-2-yl)benzyl)furo[3,2-d]pyrimidin-4-amine]	3.7 nM	66.1 nM
COc1cc(CNc2nc(-c3ccccc3C(C)C)nc3ccoc23)ccc1-c1nc(C(F)(F)F)cn1C [Example 82, 2-(2-Isopropylphenyl)-N-(3-methoxy-4-(1-methyl-4-(trifluoromethyl)-1H-imidazol-2-yl)benzyl)furo[3,2-d]pyrimidin-4-amine]	1.7 nM	278 nM
COc1cc(-n2nc(C(F)(F)F)cc2C)ccc1CNc1nc(-c2ccccc2C(C)C)nc2ccoc12 [Example 83, 2-(2-Isopropylphenyl)-N-(2-methoxy-4-(5-methyl-3-(trifluoromethyl)-1H-pyrazol-1-yl)benzyl)furo[3,2-d]pyrimidin-4-amine]	4.4 nM	99.1 nM
COc1cc(CNc2nc(-c3ccccc3C(C)C)nc3ccoc23)ccc1-n1nc(C(F)(F)F)cc1C [Example 84, 2-(2-Isopropylphenyl)-N-(3-methoxy-4-(5-methyl-3-(trifluoromethyl)-1H-pyrazol-1-yl)benzyl)furo[3,2-d]pyrimidin-4-amine]	9 nM	704 nM
C#Cc1cnc(-c2ccccc2C(C)C)nc1NCc1ccc(-c2nc(C(F)(F)F)cn2C)cc1 [Example 85, 5-Ethynyl-2-(2-isopropylphenyl)-N-(4-(1-methyl-4-(trifluoromethyl)-1H-imidazol-2-yl)benzyl)pyrimidin-4-amine]	0.47 nM	22.5 nM
CC(C)c1ccccc1-c1ncc(OC(F)F)c(NCc2ccc(-c3nc(C(F)(F)F)cn3C)cc2)n1 [Example 86, 5-(Difluoromethoxy)-2-(2-isopropylphenyl)-N-(4-(1-methyl-4-(trifluoromethyl)-1H-imidazol-2-yl)benzyl)pyrimidin-4-amine]	1.1 nM	29.4 nM
CC(C)c1ccccc1-c1ncc(N2CCN(C)CC2)c(NCc2ccc(-c3nc(C(F)(F)F)cn3C)cc2)n1 [Example 88, 2-(2-Isopropylphenyl)-N-(4-(1-methyl-4-(trifluoromethyl)-1H-imidazol-2-yl)benzyl)-5-(4-methylpiperazin-1-yl)pyrimidin-4-amine]	10 nM	157 nM
CC(C)c1ccccc1-c1ncc(O)c(NCc2ccc(-c3nc(C(F)(F)F)cn3C)cc2)n1 [Example 89, 2-(2-Isopropylphenyl)-4-((4-(1-methyl-4-(trifluoromethyl)-1H-imidazol-2-yl)benzyl)amino)pyrimidin-5-ol]	14.4 nM	243 nM
COC(=O)Cc1cnc(-c2ccccc2C(C)C)nc1NCc1ccc(-c2nc(C(F)(F)F)cn2C)cc1 [Example 91, Methyl 2-(2-(2-isopropylphenyl)-4-((4-(1-methyl-4-(trifluoromethyl)-1H-imidazol-2-yl)benzyl)amino)pyrimidin-5-yl)acetate]	1.3 nM	479 nM
COc1cnc(-c2c(OC)ncnc2C2CC2)nc1N(C)CC1CCN(c2nc(C(F)(F)F)cn2C)CC1 [Example 92, 4'-Cyclopropyl-5,6'-dimethoxy-N-methyl-N-((1-(1-methyl-4-(trifluoromethyl)-1 H-imidazol-2-yl)piperidin-4-yl)methyl)-[2,5'-bipyrimidin]-4-amine]	3.3 nM	27.3 nM
